Experimental data: patent US12569875B2, “Film formation method” (FLOSFIA INC., priority 2023, dated 2026)

Experiments:
[1] = Thermogravimetric-differential thermal analysis (TG-DTA) of iridium complexes; type: physicochemical
Source text: The iridium complexes used in Examples and Comparative Examples described above were subjected to a thermogravimetric-differential thermal analysis (TG-DTA) under an oxygen atmosphere and a nitrogen atmosphere respectively, to examine decomposition properties of the complexes. […] As the iridium complex, the iridium complex represented be the above formula (3) and the iridium complex represented by the above formula (5) were used for Examples and Comparative Examples respectively.

[2] = Preparation of an aqueous iridium complex solution (water solubility); type: physicochemical; conditions: aqueous solution at iridium concentration 0.01 mol/L could not be prepared

mass loss at 400 to 600° C. ([1]; TG-DTA, 400 to 600° C., FIG. 3): little mass loss
mass loss ratio ([1]; at 400° C., temperature increase rate 20° C./min, FIG. 2 / FIG. 3): about 70%
solubility in water [2]: insoluble in water
Substance: iridium acetylacetonato [formula (5)]
